Consider five compounds from publication PMC7714071, “Interaction of amyloid beta with humanin and acetylcholinesterase is modulated by ATP” (FEBS Open Bio, 2020).

Data set [1] has as its system Aβ. The note with it: physiological intracellular concentrations, enhanced by magnesium; cited from earlier work. The source says:
Soluble oligomers of proteins implicated in different diseases are primarily thought to be the main toxic form as opposed to the larger fibrillar assemblies. Aβ regions containing Tyr and Ser (H6DSGY10 and G25SNKG29) (Fig. 1) along with post‐translational modifications of these regions, have been implicated in misfolding, oligomerization, or fibril formation of Aβ [5, 10, 11, 16, 41]. […] In addition to ATP, the glycosaminoglycan, heparan sulfate (HS), has been previously reported to i ... || Access to the central domain of Aβ (residues 17–24) flanked by Lys‐16 and Lys‐28, known to be a critical structural element in fibrillar Aβ aggregates, might be regulated by binding of AChE and HN to their overlapping binding sites on Aβ. […] Moreover, we s ...

In data set [2] the test system is Aβ cytotoxicity. The following applies: cited from earlier work. The source says: Almost all types of cells produce amyloid beta (Aβ), a peptide well recognized for its role in the development and progression of different stages of Alzheimer's disease (AD). The Aβ peptide is ~ 4 kDa and derived from the sequential processing of the higher molecular weight amyloid precursor protein by two membrane‐bound endoproteases, β‐ and γ‐secretase. Different C‐terminal Aβ heterogeneity results from processing by γ‐secretase, where Aβ40 represents the most abundant isoform (~ 90%) as compared to Aβ42 (~ 10%). Self‐assembled Aβ40/42 peptides into amyloid fib ... || Soluble oligomers of proteins implicated in different diseases are primarily thought to be the main toxic form as opposed to the larger fibrillar assemblies. Aβ regions containing Tyr and Ser (H6DSGY10 and G25SNKG29) (Fig. 1) along with post‐translational modifications of these regions, have been implicated in misfolding, oligomerization, or fibril formation of Aβ [5, 10, 11, 16, 41]. […] Aβ proteins a ... || Acetylcholinesterase (AChE) is an enzyme known for its role in terminating acetylcholine‐mediated neurotransmission at the synaptic cleft. The majority of the cortical AChE in the Alzheimer's brain is mainly associated with the amyloid core of senile plaques. […]

The nature of data set [3]: ELISA, binding of biotinylated-Aβ to immobilised HS. The note with it: HS 100 nM on wells, increasing biotinylated-Aβ; single binding site model; mean ± SD of three independent experiments in triplicate; Fig. 2A. On the set-up: species or system bovine. As for the experimental part:
ELISAs were carried out as we previously reported. Nunc MaxiSorp 96‐well flat bottom plate (Thermo Fisher) wells were coated with samples as indicated. The plates were incubated overnight at 4 °C on a shaker to allow binding of the samples to the plate wells. After the incubation, the wells were washed 4× with TBST, filled with 400 µL blocking buffer (110 mM KCl, 5 mM NaHCO3, 5 mM MgCl2, 1 mM EGTA, 0.1 mM CaCl2, 20 mM HEPES, 1% BSA, pH 7.4), and incubated with shaking overnight at 4 °C. The wells were then washed 4× with TBST, and 100 µL of sample at the desired concentration was added to each well and incubated with shaking overnight at 4 °C. TBST was then used to wash the wells 4× before proceeding in one of two ways: (a) biotinylated samples were analyzed by adding 100 µL streptavidin–HRP conjugate in TBST (1 : 2500 dilution) to the samples followed by incubation for 3 h at RT on a shaker, or (b) samples without biotin were analyzed by adding 100 µL TBST containing the primary antibody as per the manufacturer's recommendation, incubating for 3 h at RT on a shaker, followed by washing the wells 4× with TBST. […] The reaction was stopped with 100 µL 2 M H2SO4 after incubating at RT for 0.5–15 min, resulting in a yellow color change, measured by absorbance at 450 nm. […] Statistical analysis was determined by the […] […] Data were expressed as the mean ± SD. […]
A general note: An ELISA detects its analyte on a solid surface through an enzyme-linked reagent.

The subject of data set [4] is Aβ40. The following applies: versus Aβ42; cited from earlier work. The source says: Almost all types of cells produce amyloid beta (Aβ), a peptide well recognized for its role in the development and progression of different stages of Alzheimer's disease (AD). The Aβ peptide is ~ 4 kDa and derived from the sequential processing of the higher molecular weight amyloid precursor protein by two membrane‐bound endoproteases, β‐ and γ‐secretase. Different C‐terminal Aβ heterogeneity results from processing by γ‐secretase, where Aβ40 represents the most abundant isoform (~ 90%) as compared to Aβ42 (~ 10%). Self‐assembled Aβ40/42 peptides into amyloid fib ... || Humanin (HN) is a secreted 21‐ to 24‐amino acid mitochondrial‐derived peptide. Certain amino acid residues in HN have been identified to be involved in different functions, including binding to Aβ [55, 56]. […] HN was identified previously as a binding partner of Aβ, likely modulating its aggregation pathways and counteracting its deleterious effects. […] The specific epitopes at the binding interface between HN and Aβ40 were identified, by proteolytic epitope excision and extraction in addition to affinity–mass spectrometric data analysis, to be HN (5–15) and Aβ (17–28). […] Inhibiting the 17–28 region of Aβ reduced aggregation of the neurotoxic amyloid fibrils and related cytotoxicity in SH‐SY5Y, a human neuroblastoma cell ... || (+ 1 further places)

The test system of data set [5] is Aβ42. The following applies: in brains of AD patients; cited from earlier work. The source says: Almost all types of cells produce amyloid beta (Aβ), a peptide well recognized for its role in the development and progression of different stages of Alzheimer's disease (AD). The Aβ peptide is ~ 4 kDa and derived from the sequential processing of the higher molecular weight amyloid precursor protein by two membrane‐bound endoproteases, β‐ and γ‐secretase. Different C‐terminal Aβ heterogeneity results from processing by γ‐secretase, where Aβ40 represents the most abundant isoform (~ 90%) as compared to Aβ42 (~ 10%). Self‐assembled Aβ40/42 peptides into amyloid fib ... || Amino acid residues involved in direct interactions between HN and Aβ40 were identified previously by molecular modeling. The specific epitopes at the binding interface between HN and Aβ40 were identified, by proteolytic epitope excision and extraction in addition to affinity–mass spectrometric data analysis, to be HN (5–15) and Aβ (17–28). […] Inhibiting the 17–28 region of Aβ reduced aggregation of the neurotoxic amyloid fibrils and related cytotoxicity in SH‐SY5Y, a human neuroblastoma cell ... || Acetylcholinesterase (AChE) is an enzyme known for its role in terminating acetylcholine‐mediated neurotransmission at the synaptic cleft. The majority of the cortical AChE in the Alzheimer's brain is mainly associated with the amyloid core of senile plaques. […]

In data set [6] the test system is Aβ in H1299 cell-conditioned media. As to the kind of experiment: ELISA, oligomer versus total Aβ in H1299 cell-conditioned media. Format: cell-based, human. The following applies: non-depleted H1299 media; Fig. 8B. The method, then: (§1) Aβ ELISAs were carried out according to previous protocols for determining the oligomeric and monomeric concentrations of Aβ and as we recently reported. Briefly, total Aβ (monomers + oligomers) was measured by two‐site binding ELISAs using the capture 6E10 monoclonal antibody and 4G8‐conjugated biotin as the detection antibody, which recognizes a distinct epitope, then quantitated using streptavidin‐HRP.
(§2) Using the same samples, oligomerized Aβ was measured by a single‐site ELISA in which antibodies targeting the same primary sequence epitope were used for both capture (4G8) and detection (4G8‐biotin). Only oligomers are detected with this approach since the 4G8‐biotin antibody cannot bind to the captured monomer because the epitope is blocked by the 4G8 capture antibody. Therefore, only oligomeric or multimeric Aβ containing additional exposed 4G8 epitopes, not engaged by the capture antibody, are reported by the streptavidin–HRP. The amount of the monomer was then estimated as the difference between the concentration of total Aβ and the concentration of the oligomer.
(§3) Conditioned media were immunodepleted (ID) according to the methods previously described and our recently published report. Briefly, specific antibodies were bound to ELISA wells overnight (1 : 1000 dilution). The wells were then blocked and washed, then 300 μL of the conditioned medium (0.5 μg·μL^−1) treated as indicated, 72 h postserum starvation, was incubated with the antibodies bound to ELISA wells for 24 h. The ID media were then carefully removed and analyzed for the presence of the target protein or peptide by ELISA. The same amount of protein (3 µL of 600 µg·mL^−1 total protein) of each sample was analyzed in the experiments. Significant depletion (95–100%) was observed upon using each of the antibodies employed in this study.
(§4) Both epitopes recognized by the 6E10 and 4G8 antibodies have been previously shown to be exposed in Aβ aggregates. […] To determine the effect of ID of AChE or HN on this ratio in the absence or presence of added ATP, 0.2 × 10^5 cells per well were seeded in 96‐well plates in 10% FBS‐supplemented media. The next day, the cells were incubated in serum‐free medium for 72 h, then ID of AChE or HN as described in Materials and methods. The antibodies 6E10 or 4G8 were bound (1 : 1000 dilution) to ELISA wells (Fig. 8). The wells were blocked, and then incubated with 300 μL of the ID medium (0.5 μg·μL^−1). Biotin‐4G8 was then added and the signal processed as described in Materials and methods section. Fold change relative to controls using anti‐6E10 or anti‐4G8 antibodies incubated with 300 μL of the medium not incubated with cells was calculated.
(§5) Cells (0.2 × 10^5) were grown in 10% FBS‐supplemented media for 24 h. The cells were then incubated in serum‐free medium for 72 h without or with ATP and the media collected and ID from either HN or AChE as described in Materials and methods section. The antibodies 6E10 or 4G8 were bound (1 : 1000 dilution) to ELISA wells. The wells were blocked, and then incubated with 300 μL of the control and ID medium (0.5 μg·μL^−1). Biotin‐4G8 was then added and the signal processed as described in Materials and methods section. Fold change relative to controls using anti‐6E10 and anti‐4G8 antibodies and 300 μL of the medium not incubated with cells was calculated. Data were processed using the […] 8.4.3 software. The graphs summarize the results expressed as means ± SD of three separate experiments, each performed in triplicate. […]

In data set [7] the test system is Aβ in A549 cell-conditioned media. The data set can be described thus: ELISA, oligomer versus total Aβ in A549 cell-conditioned media. In kind it is cell-based, human. The note with it: non-depleted A549 media; Fig. 8A. As for the experimental part: as §1, §2, §3, §4, §5
Data set [8] has as its system human lung adenocarcinoma xenografts. The following applies: direct injection into xenografts; cited from earlier work. The source says:
A rapidly growing body of evidence has recently steadily emerged showing that AD patients might have a reduced risk and some protection against certain cancers. […] Experimental evi ...

Data set [9] has as its system Aβ. The note with it: cited from earlier work.

Consider `Nc1ncnc2c1ncn2[C@@H]1O[C@H](COP(=O)(O)OP(=O)(O)O)[C@@H](O)[C@H]1O` [ADP], for which, in data set [1], the “effect on misfolding of Aβ” value is given as “reduced misfolding of Aβ”.

In the case of Aβ40, in data set [2], the “toxicity relative to Aβ42” value is listed as “lower toxicity”. Besides, the “binding affinity of Aβ for HS” value in data set [3] is reported as “comparable affinities”. In data set [4], the “aggregation kinetics of Aβ40” value is on record as “lower aggregation kinetics”.

Aβ42: in data set [5], the “aggregation kinetics of Aβ42” value is given as “faster aggregation kinetics”. In data set [3], the “binding affinity of Aβ for HS” value is “comparable affinities”.

Consider amyloid beta [Aβ], for which the “oligomer relative to total Aβ” value in [6] is ~ 48%; in data set [7] it was ~ 63%. In addition, the tumor growth entry in data set [8] was “suppress tumor growth in mice”.

Turning to biotinylated‐HN, the “binding of biotinylated-HN to Aβ versus HN” value in data set [9] is “indistinguishable”.
